Key:
corn = experiment: Test B pre/postemergence corn; format: in vivo, Zea mays; details: for Corn plant response rating (0 to 10 scale): 0 is no effect
Method in brief: (§1)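 Response is a visual 0-to-10 score relative to untreated plants, where 0 means no effect and 10 means complete control, taken twelve to sixteen days after application. Treatments went onto soil at planting and onto foliage of 1- to 4-leaf plants, using a surfactant-containing non-phytotoxic solvent.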

surinam grass = experiment: Test B pre/postemergence surinam grass; format: in vivo, Brachiaria decumbens; details: for B. signalgrass plant response rating (0 to 10 scale): 0 is no effect
Method in brief: as §1

bedstraw = experiment: Test B pre/postemergence bedstraw; format: in vivo, Galium aparine; details: for Bedstraw plant response rating (0 to 10 scale): 0 is no effect
Method in brief: as §1

crabgrass = experiment: Test B pre/postemergence crabgrass; format: in vivo, Digitaria sanguinalis; details: for Crabgrass plant response rating (0 to 10 scale): 0 is no effect
Method in brief: as §1

[1] = Postemergence, Rate 125 g/ha, scale of 0 to 10 where 0 is no effect and 10 is complete control
[2] = Preemergence, Rate 62 g/ha, scale of 0 to 10 where 0 is no effect and 10 is complete control
[3] = Preemergence, Rate 125 g/ha, 10 is complete control
[4] = Preemergence, Rate 250 g/ha, scale 0 to 10, 0 is no effect, 10 is complete control
[5] = Preemergence, Rate 500 g/ha, scale 0 to 10 (0 no effect, 10 complete control)
[6] = Rate 62 g/ha, Postemergence, scale of 0 to 10 where 0 is no effect and 10 is complete control
[7] = Rate 250 g/ha, Postemergence, scale 0 to 10, 0 is no effect, 10 is complete control
[8] = Rate 500 g/ha, Postemergence, scale 0 to 10
[9] = Rate 500 g/ha, Postemergence, scale 0 to 10, 0 no effect, 10 complete control
[10] = Preemergence, Rate 500 g/ha, scale of 0 to 10 where 0 is no effect and 10 is complete control
[11] = Rate 125 g/ha, Postemergence, scale 0 to 10
[12] = Rate 125 g/ha, Postemergence, scale 0 (no effect) to 10 (complete control)
[13] = Preemergence, Rate 250 g/ha, scale of 0 to 10 where 0 is no effect and 10 is complete control
[14] = Rate 125 g/ha, Preemergence, scale of 0 to 10 where 0 is no effect and 10 is complete control
[15] = Postemergence, Rate 1000 g/ha, scale 0 to 10 (0 no effect, 10 complete control)
[16] = Rate 1000 g/ha, Preemergence, scale 0 to 10 (0 no effect, 10 complete control)

For `Cc1ccccc1-n1c(=O)on(C(=O)N(c2cccc(F)c2F)C(C)C)c1=O` [Compound 171], the “Corn plant response rating” value (corn; [1]) was 0, the “Corn plant response rating” value (corn; [2]) was 0 and the “Corn plant response rating (0 to 10 scale)” value (corn; [3]) was 0. The “Corn plant response rating” value (corn; [4]) was 0, the “Corn plant response rating” value (corn; [5]) was 0 and the “Corn plant response rating” value (corn; [6]) was 0. For the same compound, the “Plant response rating, Corn” value (corn; [7]) was 0, the “Corn plant response rating” value (corn; [8]) was 0 and the “B. signalgrass plant response rating” value (surinam grass; [1]) was 0. The “B. signalgrass plant response rating” value (surinam grass; [2]) was 0, the “B. signalgrass plant response rating (0 to 10 scale)” value (surinam grass; [3]) was 1 and the “B. signalgrass plant response rating” value (surinam grass; [4]) was 3. For the same compound, the “B. signalgrass plant response rating” value (surinam grass; [5]) was 5, the “B. signalgrass plant response rating” value (surinam grass; [6]) was 0 and the “Plant response rating, B. signalgrass” value (surinam grass; [7]) was 0. The “B. signalgrass plant response rating” value (surinam grass; [9]) was 0, the “Bedstraw plant response rating” value (bedstraw; [1]) was 7 and the “Bedstraw plant response rating” value (bedstraw; [2]) was 0. The “Bedstraw plant response rating (0 to 10 scale)” value (bedstraw; [3]) was 0, the “Bedstraw plant response rating” value (bedstraw; [4]) was 0 and the “Bedstraw plant response rating” value (bedstraw; [5]) was 0. For the same compound, the “Plant response rating, Bedstraw” value (bedstraw; [7]) was 8, the “Crabgrass plant response rating” value (crabgrass; [1]) was 0 and the “Crabgrass plant response rating” value (crabgrass; [2]) was 2. The “Crabgrass plant response rating (0 to 10 scale)” value (crabgrass; [3]) was 7, the “Crabgrass plant response rating” value (crabgrass; [4]) was 10 and the “Crabgrass plant response rating” value (crabgrass; [5]) was 10. For the same compound, the “Crabgrass plant response rating” value (crabgrass; [6]) was 0, the “Plant response rating, Crabgrass” value (crabgrass; [7]) was 2 and the “Crabgrass plant response rating” value (crabgrass; [8]) was 7.

For `Cc1nc(C)c(-n2c(=O)on(C(=O)N(c3ccc(F)cc3)C(C)C)c2=O)s1` [Compound 198], the “Corn plant response rating” value (corn; [2]) was 0, the “Corn plant response rating (0 to 10 scale)” value (corn; [3]) was 0 and the “Corn plant response rating” value (corn; [4]) was 0. The “Plant response rating, Corn” value (corn; [10]) was 0, the “Corn plant response rating” value (corn; [6]) was 0 and the “Corn plant response rating” value (corn; [11]) was 0. The “Plant response rating (0 to 10; 0 is no effect, 10 is complete control), Corn” value (corn; Rate 250 g/ha, Postemergence) was 0, the “Corn plant response rating” value (corn; [8]) was 0 and the “B. signalgrass plant response rating” value (surinam grass; [2]) was 0. For the same compound, the “B. signalgrass plant response rating (0 to 10 scale)” value (surinam grass; [3]) was 0, the “B. signalgrass plant response rating” value (surinam grass; [4]) was 0 and the “Plant response rating, B. signalgrass” value (surinam grass; [10]) was 0. For the same compound, the “B. signalgrass plant response rating” value (surinam grass; [6]) was 0, the “B. signalgrass plant response rating” value (surinam grass; [12]) was 0 and the “Plant response rating, B. signalgrass” value (surinam grass; [7]) was 0. For the same compound, the “B. signalgrass plant response rating” value (surinam grass; [9]) was 0, the “Bedstraw plant response rating” value (bedstraw; [2]) was 0 and the “Bedstraw plant response rating (0 to 10 scale)” value (bedstraw; [3]) was 0. For the same compound, the “Bedstraw plant response rating” value (bedstraw; [4]) was 0, the “Plant response rating, Bedstraw” value (bedstraw; [10]) was 0 and the “Bedstraw plant response rating” value (bedstraw; [6]) was 0. The “Bedstraw plant response rating” value (bedstraw; [11]) was 0, the “Plant response rating (0 to 10; 0 is no effect, 10 is complete control), Bedstraw” value (bedstraw; Rate 250 g/ha, Postemergence) was 0 and the “Crabgrass plant response rating” value (crabgrass; [2]) was 0. The “Crabgrass plant response rating (0 to 10 scale)” value (crabgrass; [3]) was 0, the “Crabgrass plant response rating” value (crabgrass; [4]) was 0 and the “Plant response rating, Crabgrass” value (crabgrass; [10]) was 0. The “Crabgrass plant response rating” value (crabgrass; [6]) was 0, the “Crabgrass plant response rating” value (crabgrass; [11]) was 0 and the “Plant response rating (0 to 10; 0 is no effect, 10 is complete control), Crabgrass” value (crabgrass; Rate 250 g/ha, Postemergence) was 0. For the same compound, the “Crabgrass plant response rating” value (crabgrass; [8]) was 0.

For `COc1cc(C)cc(C)c1-n1c(=O)on(C(=O)N(c2ccc(F)cc2)C(C)C)c1=O` [Compound 222], the “Corn plant response rating” value (corn; [2]) was 0, the “Corn plant response rating” value (corn; [13]) was 0 and the “Plant response rating, Corn” value (corn; [10]) was 0. For the same compound, the “Corn plant response rating” value (corn; [6]) was 0, the “Corn plant response rating” value (corn; [11]) was 0 and the “Corn plant response rating” value (corn; [14]) was 0. For the same compound, the “Plant response rating (0 to 10; 0 is no effect, 10 is complete control), Corn” value (corn; Rate 250 g/ha, Postemergence) was 0, the “Corn plant response rating” value (corn; [9]) was 0 and the “B. signalgrass plant response rating” value (surinam grass; [2]) was 0. The “B. signalgrass plant response rating” value (surinam grass; [4]) was 0, the “Plant response rating, B. signalgrass” value (surinam grass; [10]) was 0 and the “B. signalgrass plant response rating” value (surinam grass; [6]) was 0. For the same compound, the “B. signalgrass plant response rating” value (surinam grass; [12]) was 0, the “B. signalgrass plant response rating” value (surinam grass; [14]) was 0 and the “Plant response rating (0 to 10; 0 is no effect, 10 is complete control), B. signalgrass” value (surinam grass; Rate 250 g/ha, Postemergence) was 0. The “B. signalgrass plant response rating” value (surinam grass; [9]) was 1, the “Bedstraw plant response rating” value (bedstraw; [2]) was 0 and the “Bedstraw plant response rating” value (bedstraw; [13]) was 0. For the same compound, the “Plant response rating, Bedstraw” value (bedstraw; [10]) was 0, the “Bedstraw plant response rating” value (bedstraw; [6]) was 3 and the “Bedstraw plant response rating” value (bedstraw; [11]) was 3. For the same compound, the “Bedstraw plant response rating” value (bedstraw; [14]) was 0, the “Plant response rating (0 to 10; 0 is no effect, 10 is complete control), Bedstraw” value (bedstraw; Rate 250 g/ha, Postemergence) was 4 and the “Bedstraw plant response rating” value (bedstraw; [9]) was 5. The “Crabgrass plant response rating” value (crabgrass; [2]) was 0, the “Crabgrass plant response rating” value (crabgrass; [13]) was 8 and the “Plant response rating, Crabgrass” value (crabgrass; [10]) was 9. The “Crabgrass plant response rating” value (crabgrass; [6]) was 0, the “Crabgrass plant response rating” value (crabgrass; [11]) was 0 and the “Crabgrass plant response rating” value (crabgrass; [14]) was 6. For the same compound, the “Plant response rating (0 to 10; 0 is no effect, 10 is complete control), Crabgrass” value (crabgrass; Rate 250 g/ha, Postemergence) was 0 and the “Crabgrass plant response rating” value (crabgrass; [9]) was 2.

In the case of `Cc1ccccc1-n1c(=O)on(C(=O)N(c2ccc(C(C)C)cc2)C(C)C)c1=O` [Compound 231], the “Corn plant response rating” value (corn; [2]) is reported as 0, the “Corn plant response rating” value (corn; [13]) is reported as 0 and the “Plant response rating, Corn” value (corn; [10]) is reported as 0. The “Corn plant response rating” value (corn; [6]) was 0, the “Corn plant response rating” value (corn; [11]) was 0 and the “Corn plant response rating” value (corn; [14]) was 0. For the same compound, the “Plant response rating (0 to 10; 0 is no effect, 10 is complete control), Corn” value (corn; Rate 250 g/ha, Postemergence) was 0, the “Corn plant response rating” value (corn; [9]) was 0 and the “B. signalgrass plant response rating” value (surinam grass; [2]) was 0. For the same compound, the “B. signalgrass plant response rating” value (surinam grass; [4]) was 0, the “Plant response rating, B. signalgrass” value (surinam grass; [10]) was 0 and the “B. signalgrass plant response rating” value (surinam grass; [6]) was 0. For the same compound, the “B. signalgrass plant response rating” value (surinam grass; [12]) was 0, the “B. signalgrass plant response rating” value (surinam grass; [14]) was 0 and the “Plant response rating (0 to 10; 0 is no effect, 10 is complete control), B. signalgrass” value (surinam grass; Rate 250 g/ha, Postemergence) was 0. The “B. signalgrass plant response rating” value (surinam grass; [9]) was 0, the “Bedstraw plant response rating” value (bedstraw; [2]) was 0 and the “Bedstraw plant response rating” value (bedstraw; [13]) was 0. For the same compound, the “Plant response rating, Bedstraw” value (bedstraw; [10]) was 0, the “Bedstraw plant response rating” value (bedstraw; [6]) was 0 and the “Bedstraw plant response rating” value (bedstraw; [11]) was 0. The “Bedstraw plant response rating” value (bedstraw; [14]) was 0, the “Plant response rating (0 to 10; 0 is no effect, 10 is complete control), Bedstraw” value (bedstraw; Rate 250 g/ha, Postemergence) was 0 and the “Bedstraw plant response rating” value (bedstraw; [9]) was 0. The “Crabgrass plant response rating” value (crabgrass; [2]) was 0, the “Crabgrass plant response rating” value (crabgrass; [13]) was 0 and the “Plant response rating, Crabgrass” value (crabgrass; [10]) was 7. For the same compound, the “Crabgrass plant response rating” value (crabgrass; [6]) was 0, the “Crabgrass plant response rating” value (crabgrass; [11]) was 0 and the “Crabgrass plant response rating” value (crabgrass; [14]) was 0. For the same compound, the “Plant response rating (0 to 10; 0 is no effect, 10 is complete control), Crabgrass” value (crabgrass; Rate 250 g/ha, Postemergence) was 0 and the “Crabgrass plant response rating” value (crabgrass; [9]) was 2.

In the case of `CCOC(=O)C(C)N(C(=O)n1oc(=O)n(-c2ccccc2C)c1=O)c1ccc(F)cc1` (stereo not drawn) [Compound 247], the “Corn plant response rating” value (corn; [15]) is reported as 0, the “Corn plant response rating” value (corn; [13]) is reported as 0 and the “Plant response rating, Corn” value (corn; [10]) is reported as 0. For the same compound, the “Corn plant response rating” value (corn; [11]) was 0, the “Corn plant response rating” value (corn; [14]) was 0 and the “Plant response rating (0 to 10; 0 is no effect, 10 is complete control), Corn” value (corn; Rate 250 g/ha, Postemergence) was 0. For the same compound, the “Corn plant response rating” value (corn; [9]) was 0, the “Plant response rating, Corn” value (corn; [16]) was 0 and the “B. signalgrass plant response rating” value (surinam grass; [15]) was 0. For the same compound, the “B. signalgrass plant response rating” value (surinam grass; [13]) was 0, the “Plant response rating, B. signalgrass” value (surinam grass; [10]) was 0 and the “B. signalgrass plant response rating” value (surinam grass; [12]) was 0. The “B. signalgrass plant response rating” value (surinam grass; [14]) was 0, the “Plant response rating (0 to 10; 0 is no effect, 10 is complete control), B. signalgrass” value (surinam grass; Rate 250 g/ha, Postemergence) was 0 and the “B. signalgrass plant response rating” value (surinam grass; [9]) was 0. The “Plant response rating, B. signalgrass” value (surinam grass; [16]) was 0, the “Bedstraw plant response rating” value (bedstraw; [15]) was 0 and the “Bedstraw plant response rating” value (bedstraw; [13]) was 0. The “Plant response rating, Bedstraw” value (bedstraw; [10]) was 0, the “Bedstraw plant response rating” value (bedstraw; [11]) was 0 and the “Bedstraw plant response rating” value (bedstraw; [14]) was 0. The “Plant response rating (0 to 10; 0 is no effect, 10 is complete control), Bedstraw” value (bedstraw; Rate 250 g/ha, Postemergence) was 0, the “Bedstraw plant response rating” value (bedstraw; [9]) was 0 and the “Plant response rating, Bedstraw” value (bedstraw; [16]) was 0. The “Crabgrass plant response rating” value (crabgrass; [15]) was 0, the “Crabgrass plant response rating” value (crabgrass; [13]) was 2 and the “Plant response rating, Crabgrass” value (crabgrass; [10]) was 2. The “Crabgrass plant response rating” value (crabgrass; [14]) was 0, the “Plant response rating (0 to 10; 0 is no effect, 10 is complete control), Crabgrass” value (crabgrass; Rate 250 g/ha, Postemergence) was 0 and the “Crabgrass plant response rating” value (crabgrass; [9]) was 0. The “Plant response rating, Crabgrass” value (crabgrass; [16]) was 3.
